# Measurements published in patent US20230348362A1, “LIPID COMPOUNDS AND LIPID NANOPARTICLE COMPOSITIONS” (Suzhou Abogen Biosciences Co., Ltd., priority 2021, published 2023).
# Assays:
# Format in all cases: physicochemical
# [1] = Encapsulation efficiency of lipid nanoparticles, Quant-it Ribogreen RNA assay; conditions: LNP of lipid/DSPC/cholesterol/PEG-lipid 50:10:38.5:1.5 encapsulating hEPO mRNA
# Method in brief: (§1)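 LNPs made from ionizable lipid/DSPC/cholesterol/PEG-lipid (50:10:38.5:1.5) and mRNA in citrate pH 4 by microfluidic mixing, lipid:mRNA about 10:1–30:1 w/w, then dialysed into DPBS and filtered. Size and PDI measured by DLS in backscatter mode; encapsulation efficiency measured by RiboGreen assay.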
# [2] = Lipid nanoparticle size and polydispersity by dynamic light scattering; conditions: LNP of lipid/DSPC/cholesterol/PEG-lipid 50:10:38.5:1.5 encapsulating hEPO mRNA
# Method in brief: as §1
# [3] = Apparent pKa of LNP formulations, TNS fluorescence assay; conditions: LNP cationic lipid/DSPC/cholesterol/DMG-PEG 50/10/38.5/1.5 mol %
# Method in brief: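 LNPs (cationic lipid/DSPC/cholesterol/DMG-PEG 50/10/38.5/1.5 mol %) diluted to 0.1 mg/mL total lipid in citrate/phosphate/borate/NaCl buffers spanning pH 3–9 with TNS. Fluorescence (ex 325, em 435 nm) read at room temperature; pKa taken as the pH at half-maximal intensity from sigmoidal fit.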
Compound,Encapsulation Efficiency [1] [%],polydispersity [2],size (nm) [2] [nm],Apparent Pka [3]
CCCCCCCCC(CCCCCCCC)COC(=O)CCCCCN(CCO)CCN(CCCCCOC(=O)CCCCC=C(CCCCCC)CCCCCC)C1CCC1 [Compound 87],93.34,0.055,70.07,6.476
CCCCCCCCC(CCCCCCCC)COC(=O)CCOCCN(CCO)CCN(CCOCCC(=O)OCC(CCCCCCCC)CCCCCCCC)C1CCC1 [Compound 112],93.15,0.059,77.33,6.343
CCCCCCCCC(CCCCCCCC)CC(=O)NCCCCCN(CCN(CCO)CCCCCOC(=O)CC(CCCCCCCC)CCCCCCCC)C1CCCC1 [Compound 72],92.60,0.033,74.18,6.633
CCCCCCCCCOC(=O)CCCCCCCN1CCC(N(CCO)CCCCCCCC(=O)OC(CCCCCCCC)CCCCCCCC)CC1 [Compound 177],93.69,0.059,95.00,6.668
CCCCCCCCCCCC(=O)OCCCCCN(CCN(CCO)CCCCCOC(=O)CC(CCCCCCCC)CCCCCCCC)C1CCCCCCC1 [Compound 95],92.04,0.103,55.48,6.271
CCCCCCCCC(CCCCCCCC)COC(=O)CCCCCN(CCO)CCN(CCCCCC(=O)OCC(CCCCCCCC)CCCCCCCC)C1CCSCC1 [Compound 30],92.9,0.115,53.56,6.131
CCCCCCCCC(CCCCCCCC)CC(=O)NCCCCCN(CCN(CCO)CCCCCCOC(=O)C(CCCCCC)CCCCCCCC)C1CCC1 (stereo not shown) [Compound 70],91.32,0.005,126,6.732
CCCCCCCCCCCCCCCCC(CN(CCO)CCN(CC(CCCCCCCCCCCCCCCC)OCCCCCCCC)C1CCC1)OCCCCCCCC (stereo not shown) [Compound 25],90.67,0.068,50.59,4.853
CCCCCCCCC(CCCCCC)COC(=O)CCCCCN(CC=C(C)C)CCN(CCO)CCCCC1COC(C(CCCCCC)CCCCCCCC)OC1 (stereo not shown) [Compound 151],92.43,0.064,61.84,6.368
CCCCCCCCC(CCCCCCCC)COC(=O)CCCCCN(CCO)CCN(CCCCCC(=O)OCC(CCCCCCCC)CCCCCCCC)Cc1ccc(C)cc1 [Compound 39],84.0,0.034,55.02,5.740
CCCCCCCCCCCCCCCCOC(=O)CCCCCN(CCN(CCO)CCCCCC(=O)OCC(CCCCCCCC)CCCCCCCC)C1CCCCCCC1 [Compound 131],92.18,0.121,56.62,6.255
CCCCCCCC(=O)OCC(COCCN(CCO)CCN(CCOCC(COC(=O)CCCCCCC)COC(=O)CCCCCCC)C1CCCCC1)COC(=O)CCCCCCC [Compound 179],89.97,0.041,103.40,6.322
CCCCCCCC(=O)OCC(CCCCN(CCO)CCN(CCCCC(COC(=O)CCCCCCC)COC(=O)CCCCCCC)C1CCCCCCC1)COC(=O)CCCCCCC [Compound 161],87.54,0.090,72.08,6.02
CCCCCCCCC(CCCCCCCC)COC(=O)CCCCCN(CCN(CCO)CCOCCC(=O)OCC(CCCCCCCC)CCCCCCCC)C1CCC1 [Compound 110],93.11,0.042,84.07,6.293
CCCCCCCCC(CCCCCC)CNC(=O)CCCCCN(CCCCCO)CCN(CCCCC(COC(=O)CCCCCCC)COC(=O)CCCCCCC)C1CCCCCC1 (stereo not shown) [Compound 225],92.20,0.033,76.81,6.668
CCCCCCCCC(CCCCCC)COC(=O)CCCCCN(CCCCN(CCO)CCCCC(COC(=O)CCCCCCC)COC(=O)CCCCCCC)C1CCCCCCC1 (stereo not shown) [Compound 194],84.59,0.15,102.1,6.705
CCCCCCCCC(CCCCCCCC)COC(=O)CCCCCN(CCO)CCN(CCCCC)CCCCCC(=O)OCC(CCCCCCCC)CCCCCCCC [Compound 124],94.60,0.111,59.55,5.997

# Further lines, results first:
Encapsulation Efficiency [1] [%],polydispersity [2],size (nm) [2] [nm],Apparent Pka [3],Compound
88.17,0.058,85.76,6.62,CCCCCCCCC(CCCCCC)CC(=O)OCCCCCN(CCO)CCN(CCCCCN(C)C(=O)CC(CCCCCC)CCCCCCCC)C1CCCCCC1 (stereo not shown) [Compound 147]
88.18,0.019,100.3,6.195,CCCCCCCCC(CCCCCCCC)CNC(=O)CCCCCN(CCN(CCCCCCCCCO)CCCCCC(=O)OCC(CCCCCCCC)CCCCCCCC)C1CCC1 [Compound 78]
91.34,0.076,76.37,6.586,CCCCCCCCC(CCCCCC)CNC(=O)CCCCCN(CC=C(C)C)CCN(CCO)CCCCC1COC(C(CCCCCC)CCCCCCCC)OC1 (stereo not shown) [Compound 150]
87.20,0.078,98.67,6.423,CCCCCCCCC(CCCCCCCC)COC(=O)CCCCCN(CCO)CCN(CCCCCC(=O)OCCCCCC)C1CCCCC1 [Compound 101]
92.05,0.069,76.24,6.108,CCCCCCCCC(CCCCCCCC)COC(=O)CCCCCN(CCN(CCO)CCOCCC(=O)OCC(CCCCCCCC)CCCCCCCC)C1CCCCC1 [Compound 111]
89.88,0.153,73.05,6.447,CCCCCCCCCCCC(=O)OCC(CCCCN(CCO)CCN(CCCCC(COC(=O)CCCCCCCCCCC)COC(=O)CCCCCCCCCCC)C1CCC1)COC(=O)CCCCCCCCCCC [Compound 169]
92.51,0.032,87.87,6.233,CCCCCCCCC(CCCCCCCC)COC(=O)CCCCCN(CCO)CCN(CCCCCOC(=O)CCCCCC(CCCCCC)CCCCCC)C1CCC1 [Compound 83]
94.10,0.154,119.3,6.995,CCCCCCCC(=O)OCC(CCCCN(CCO)CCCCN(CCCCC(COC(=O)CCCCCCC)COC(=O)CCCCCCC)C1CCCC1)COC(=O)CCCCCCC [Compound 181]
95.7,0.062,63.7,5.872,CCCCCCCCC(CCCCCCCC)COC(=O)CCCCCN(CCCCCC)CCN(CCCCCC(=O)OCC(CCCCCCCC)CCCCCCCC)C1CCC(O)CC1 (stereo not shown) [Compound 53]
96.26,0.104,69.09,6.914,CCCCCCCCC(CCCCCCCC)COC(=O)CCCCCN(C)CCN(CCCCCC(=O)OCC(CCCCCCCC)CCCCCCCC)CCNc1c(NC)c(=O)c1=O [Compound 79]
92.25,0.036,73.66,6.712,CCCCCCCCC(CCCCCC)CNC(=O)CCCCCCN(CCO)CCN(CCCCC(COC(=O)CCCCCCC)COC(=O)CCCCCCC)C1CCCCC1 (stereo not shown) [Compound 231]
97.7,0.1,110,7.327,CCCCCCCCCCCC(=O)NCCCCCN(CCN(CCO)CCCCCNC(=O)CC(CCCCCCCC)CCCCCCCC)C1CCCCC1 [Compound 58]
93.10,0.044,104.2,6.443,CCCCCCCCC(CCCCCCCC)COC(=O)CCCCCN(C/C=C/CN(CCCCCC(=O)OCC(CCCCCCCC)CCCCCCCC)C1CCC1)CCO [Compound 65]
90.3,0.042,64.14,6.335,CCCCCCCCCCCOC(=O)CCCCCN(CCN(CCO)CCCCCC(=O)C(CCCCCC)CCCCCCCCC)C1CCCCC1 (stereo not shown) [Compound 46]
91.68,0.031,83.28,6.646,CCCCCCCC/C=C\CCCCCCCC(=O)OCCCCCN(CCO)CCN(CCCCCNC(=O)CC(CCCCCC)CCCCCCCC)C1CCCCCC1 (stereo not shown) [Compound 152]
91.54,0.066,67.32,6.599,CCCCCCCCCCCOC(=O)CCCCCN(CCN(CCCCCC(=O)OCC(CCCCCCCC)CCCCCCCC)CCNc1c(NC)c(=O)c1=O)C1CCC1 [Compound 82]
95.6,0.089,67.63,6.114,CCCCCCCCC(CCCCCCCC)COC(=O)CCCCCN(CCC)CCN(CCCCCC(=O)OCC(CCCCCCCC)CCCCCCCC)C1CCC(O)CC1 (stereo not shown) [Compound 52]
